This is an account of results in US20080069849A1, “Novel Antimicrobial Peptides” (Dermagen AB, priority 2004, published 2008).

The test system of one series is Escherichia coli 37.4. The experiment in a line: Radial diffusion assay (RDA), E. coli 37.4. It counts as cell-based. As to conditions: for RDA (mm) E. coli 37.4 Mean: zone of inhibition, Table 2, second generation PEPscreen. The method, then: (§1) Escherichia coli 37.4 isolate was originally obtained from a patient with a chronic venous ulcer, while Staphylococcus aureus isolate BD14312 was from a patient with atopic dermatitis. Staphylococcus aureus ATCC29213 and Candida albicans ATCC90028 were both obtained from the Clinical Bacteriology Department at Lund University hospital.
(§2) Essentially as described earlier (Lehrer et al., J Immunol Methods 137, 167-173, 1991, Andersson et al., Eur J Biochem 271, 1219-1226, 2004) bacteria were grown to mid-logarithmic phase in 10 ml of full-strength (3% w/v) trypticase soy broth (TSB) (Becton-Dickinson, Cockeysville, Md.). The microorganisms were then washed once with 10 mM Tris, pH 7.4.4×10^6 bacterial colony forming units were added to 15 ml of the underlay agarose gel, consisting of 0.03% (w/v) TSB, 1% (w/v) low electroendosmosis type (EEO) agarose (Sigma, St Louis Mo.) and 0.02% (v/v) Tween 20 (Sigma). The underlay was poured into a ø 144 mm petri dish. After agarose solidification, 4 mm-diameter wells were punched and 6 μl of test sample was added to each well. Plates were incubated at 37° C. for 3 hours to allow diffusion of the peptides. The underlay gel was then covered with 15 ml of molten overlay (6% TSB and 1% Low-EEO agarose in dH2O). Antimicrobial activity of a peptide is visualized as a zone of clearing around each well after 18-24 hours of incubation at 37° C.

Series [1] deals with Staphylococcus aureus ATCC29213. The experiment in a line: Radial diffusion assay (RDA), S. aureus ATCC29213. The settings on record: zone of inhibition; Table 2, second generation PEPscreen. It counts as cell-based. The protocol:
as §1, §2

Another series deals with erythrocytes. The experiment in a line: Hemolysis assay (Example 11). The class given is cell-based. The arrangement: % Hemolysis Mean: dose or concentration left out as unconfirmed. The method, then:
EDTA-blood was centrifuged at 800 g for 10 min, whereafter plasma and buffy coat were removed. The erythrocytes were washed three times and resuspended in 5% PBS, pH 7.4. The cells were then incubated with end-over-end rotation for 1 h at 37° C. in the presence of peptides ([…]). 2% Triton X-100 (Sigma-Aldrich) served as positive control. The samples were then centrifuged at 800 g for 10 min. The absorbance of hemoglobin release was measured at λ 540 nm and is in the plot expressed as % of TritonX-100 induced hemolysis.

Series [2] can be described thus: Heparin binding on nitrocellulose with radiolabelled heparin. As to conditions: unlabelled heparin 6 mg/ml. The protocol: Peptides were tested for heparin binding activities. Peptides were applied on nitrocellulose membranes (Hybond, Amersham Biosciences). Membranes were blocked (PBS, pH 7.4, 0.25% Tween 20, 3% bovine serum albumin) for one hour and incubated with radiolabelled heparin for one hour in the same buffer. […] The membranes were washed (3×10 min in PBS, pH 7.4, 0.25% Tween 20). A Bas 2000 radio imaging system (Fuji) was used for visualization of radioactivity.

Series [3] in a line: Binding to lipid bilayers by ellipsometry. As to conditions: 10 mM Tris, pH 7.4. The protocol: (§3) Peptides were tested for binding to lipid bilayers, resulting pore formation and peptide secondary structure in the lipid membranes. Lipid membranes investigated included both zwitterionic ones (containing phosphatidylcholine) and anionic ones (containing mixtures of phosphatidylcholine and phosphatidic acid). Lipid membranes were deposited at silica, and the binding of the peptides from 10 mM Tris, pH 7.4, was directly monitored by ellipsometry. […] Pore formation in these liposomes were determined by including carboxyfluorescein in the liposomes and following the fluorescence intensity increase on addition of peptides to the liposomes. Furthermore, the secondary structure of the peptides in the liposome lipid membranes was probed by circular dichroism.

A short description of series [4]: Pore formation / carboxyfluorescein leakage of liposomes. The settings on record: 10 mM Tris, pH 7.4. The method, then: as §3
The test system of series [5] is Pseudomonas aeruginosa 15159. The experiment in a line: Radial diffusion assay (RDA), P. aeruginosa 15159. As to conditions: 100 μM of peptides, n=9. It counts as cell-based. The protocol: as §2
Based on the criteria defined in EXAMPLE 1 several new variants with increased positive net charge, high helicity and increased amphipathicity were designed and synthesized. In order to rationally test as many different variants as possible a PEP screen library was utilized as described above. […]

Another series deals with P. aeruginosa 27.1. The experiment in a line: Radial diffusion assay analysis of CNY variants (Example 4). As to conditions: peptides 100 μM. It counts as cell-based, Pseudomonas aeruginosa. The protocol:
Radial diffusion assays (RDA) were performed essentially as described earlier (Andersson et al., Eur J Biochem, 2004, 271:1219-1226). Briefly, bacteria (P. aeruginosa 27.1) were grown to mid-logarithmic phase in 10 ml of full-strength (3% w/v) trypticase soy broth (TSB) (Becton-Dickinson, Cockeysville, Md.). The microorganisms were washed once with […] Tris, pH 7.4. 4×10^6 bacterial cfu or 1×10^5 fungal cfu was added to 5 ml of the underlay agarose gel, consisting of 0.03% (w/v) TSB, 1% (w/v) low-electroendosmosistype (Low-EEO) agarose (Sigma, St Louise Mo.) and a final concentration of 0.02% (v/v) Tween 20 (Sigma). The underlay was poured into a Ø 85 mm petri dish. After agarose solidified, 4 mm-diameter wells were punched and 6 μl of test sample was added to each well. Plates were incubated at 37° C. for 3 hours to allow diffusion of the peptides. The underlay gel was then covered with 5 ml of molten overlay (6% TSB and 1% Low-EEO agarose in dH2O). Antimicrobial activity of a peptide is visualized as a clear zone around each well after 18-24 hours of incubation at 37° C. Synthetic peptides were tested in concentrations of 100 μM to determine the antibacterial effect (FIG. 8). CNY21; […], CNY20; […], CNY21R-S; […], CNY20R-S; […], CNY21H-L: […], CNY21H-K: […], CNY21H-P: […].

Read-outs that look alike come from different tables or passages of the source. Where no end group is shown, it is not given here.

On to “Ac-CNYIEELRRQLARALHKGLA-NH2 [Peptide 181]”, for which the “RDA (mm) E. coli 37.4 Mean” value in the series with Escherichia coli 37.4 worked out at 4.330 mm. Besides, the “RDA (mm) S. aureus ATCC29213 Mean” value in series [1] is recorded as 4.24 mm. The “% Hemolysis Mean” value in the series with erythrocytes (1 h) came to 4.861%.

Turning to “Ac-CNYITELLRQLARASKKGLA-NH2 [Peptide 180]”, the “RDA (mm) E. coli 37.4 Mean” value with Escherichia coli 37.4 came to 5.933 mm. The “RDA (mm) S. aureus ATCC29213 Mean” value in series [1] worked out at 0 mm. The “% Hemolysis Mean” value in the series on erythrocytes (1 h) is recorded as 5.447%. Take “Ac-CNYITELRRQHARASHLGLA-NH2 [Peptide 179]”: the “RDA (mm) E. coli 37.4 Mean” value in the series with Escherichia coli 37.4 is 2.677 mm. In addition, the “RDA (mm) S. aureus ATCC29213 Mean” value in series [1] amounted to 4.03 mm. In addition, the “% Hemolysis Mean” value in the series on erythrocytes (1 h) was 2.495%. As for CNYIEELLRQLAPASHKGLA [Peptide 148], the “RDA (mm) E. coli 37.4 Mean” value with Escherichia coli 37.4 is listed as 2.900 mm. The “RDA (mm) S. aureus ATCC29213 Mean” value in series [1] is 0.99 mm. In the series on erythrocytes, the “% Hemolysis Mean” value was 1.454%. Regarding CNYIEELRRQLARAWHKGLA [Peptide 174], the “% Hemolysis Mean” value with erythrocytes (1 h) is recorded as 2.056%.

Regarding CNYIEELRRQWARALHKGLA [Peptide 175], in the series on erythrocytes (1 h), the “% Hemolysis Mean” value was 1.824%. The same measure, in the same setting: in the case of CNYIEELWRQLARALHKGLA [Peptide 176] it was 2.771%. Still for that read-out and setting: the figure for CNYIKELLRQKLRASHLGLA [Peptide 171] is 2.383%; for CNYITELKRQLARALHKGLA [Peptide 143] it is 3.450%; for CNYITELKRQLARALKKGLA [Peptide 144] it is 3.597%. Turning to CNYITELLRQKARALHKGLA [Peptide 161], the “% Hemolysis Mean” value in the series on erythrocytes (1 h) worked out at 1.902%. Same read-out and setting: the figure for CNYITELLRQKARALKKGLA [Peptide 163] is 2.478%.

As for CNYITELLRQLARAKKKGLA [Peptide 160], the “% Hemolysis Mean” value in the series on erythrocytes (1 h) was found to be 2.512%. Still for that read-out and setting: in the case of CNYITELLRQLARANKKGLA [Peptide 154] it was 2.564%; in that of CNYITELLRQLARAQKKGLA [Peptide 155], 5.817%.

Take CNYITELLRQLARARHKGLA [Peptide 156]: the “% Hemolysis Mean” value in the series with erythrocytes (1 h) came out at 3.321%. For the substance CNYITELLRQLARARKKGLA [Peptide 158], the “% Hemolysis Mean” value with erythrocytes (1 h) amounted to 3.829%. On to CNYITELLRQLARASHKGLA [Peptide 147], for which the “% Hemolysis Mean” value in the series with erythrocytes (1 h) is on record as 2.555%. On to CNYITELLRQLARASKKGLA [Peptide 39], for which the “hemolytic activity” value with erythrocytes is recorded as “low hemolytic activity”.

On to CNYITELLRQLARATHKGLA [Peptide 150], for which, in the series on erythrocytes (1 h), the “% Hemolysis Mean” value was found to be 3.777%. Still for that read-out and setting: the figure for CNYITELLRQLARATKKGLA [Peptide 152] is 3.984%; for CNYITELLRQRARALHKGLA [Peptide 165] it is 2.659%; for CNYITELLRQRARALKKGLA [Peptide 167] it is 2.642%. In the case of CNYITELRRQHARASHLGLAR [CNY21], the “RDA mean value, E. coli” value in the series on Escherichia coli 37.4 (100 μM of peptides, n=9) is 6.02. In addition, the “heparin binding, competition by unlabelled heparin” value in series [2] is reported as “inhibited the binding”. In addition, the “binding to lipid membranes” value in series [3] was “binds to zwitterionic and anionic lipid membranes”. The “pore formation and leakage of liposomes, order of efficiency” value (shortened to “pore formation and leakage of liposomes”) in series [4] is “CNY21H-L≈CNY21H-K>CNY21>CNY21H-P≧CNY21 R-S”. Further, the “RDA mean value, P. aeruginosa” value in series [5] came to 5.00. For CNYITELRRQKARASKLGLAR [CNY21H-K], in the series with P. aeruginosa 27.1, the “antibacterial effect in RDA” value is reported as “larger anti-bacterial effect”. For the same substance, in series [4], the “pore formation and leakage of liposomes” value is “CNY21H-L≈CNY21H-K>CNY21>CNY21H-P≧CNY21 R-S”. As to CNYITELRRQKLRLLHKGLA [Peptide 170], the “% Hemolysis Mean” value with erythrocytes (1 h) came out at 2.211%. In the case of CNYITELRRQKLRLLKKGLA [Peptide 169], in the series with erythrocytes (1 h), the “% Hemolysis Mean” value came out at 2.512%. Same read-out and setting: in the case of CNYITELRRQLARALHKGLA [Peptide 140] it was 5.145%.

As to CNYITELRRQLARALKKGLA [Peptide 141], the “% Hemolysis Mean” value in the series on erythrocytes (1 h) is listed as 17.716%. With CNYITELRRQLARASLLGLAR [CNY21H-L], in the series with P. aeruginosa 27.1, the “antibacterial effect in RDA” value was “larger anti-bacterial effect”. Besides, the “pore formation and leakage of liposomes” value in series [4] is reported as “CNY21H-L≈CNY21H-K>CNY21>CNY21H-P≧CNY21 R-S”. Taken in the same sequence, the figures for CNYITELRRQPARASPLGLAR [CNY21H-P] were “no antimicrobial effects” and “CNY21H-L≈CNY21H-K>CNY21>CNY21H-P≧CNY21 R-S”. Consider CNYITELSSQHASASHLGLAR [CNY21R-S], for which the “binding to lipid membranes” value in series [3] was “CNY21 shows a higher binding tendency than CNY21 R-S”. The “pore formation and leakage of liposomes” value in series [4] is reported as “CNY21H-L≈CNY21H-K>CNY21>CNY21H-P≧CNY21 R-S”. On to CNYIWELRRQLARALHKGLA [Peptide 177], for which, in the series on erythrocytes (1 h), the “% Hemolysis Mean” value worked out at 3.175%.
